Test systems include HS 578T breast; NCI-H460 lung; ACHN renal; OVCAR-4 ovarian; NCI-H226 lung; SF-539 CNS; UACC-62 melanoma; DLD-1 colon; DMS 114 small cell lung; DMS 273 small cell lung; HOP-18 NSCLC; M19-MEL melanoma; SNB-78 CNS.
Holding throughout (assay): NCI anticancer screen, dose series, 48 h

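All cell lines were grown in 96-well plates and treated with compound for 48 hours. The concentration for 50% growth inhibition is given as GI50. TGI denotes the concentration required for complete inhibition of growth.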

For `Cc1ccc(N(CC(=O)Nc2ccc(S(=O)(=O)N3CCC(N4CCCC4)CC3)cc2)S(=O)(=O)c2ccc(Cl)cc2)cc1`, the GI50 was 1.76 µM in the test on HS 578T breast and 1.75 µM with NCI-H460 lung. Also, the TGI in the test with HS 578T breast amounted to 4.39 µM; in the test on NCI-H460 lung, 3.43 µM.

Take `O=C1Nc2ccc(Cl)cc2/C1=C\c1c(Cl)nc2sccn12`: the TGI in the test with ACHN renal and in the test on OVCAR-4 ovarian was more than 100 µM in each case.

`O=C(Nc1ccc(-n2ccc3c(NC(=O)c4ccccc4)ncnc32)cc1)Nc1cccc(Cl)c1Cl`: the GI50 in the test on ACHN renal is 1.35 µM; in the test on HS 578T breast, 0.856 µM; in the test on NCI-H226 lung, 1.07 µM; with OVCAR-4 ovarian it was 0.878 µM; in the test with SF-539 CNS it was 1.12 µM; in the test with UACC-62 melanoma, 1.02 µM. Besides, the TGI stood at 4.06 µM with ACHN renal; 2.6 µM in the test on HS 578T breast; 4.87 µM in the test on NCI-H226 lung; 1.91 µM in the test with OVCAR-4 ovarian; 5.69 µM with SF-539 CNS; 3.29 µM with UACC-62 melanoma.

In the case of `CC(=O)NC1=C[C@@H]([C@H]2COC(C)(C)O2)OC1=O`, the TGI with DLD-1 colon, in the test with DMS 114 small cell lung, in the test with DMS 273 small cell lung, in the test with HOP-18 NSCLC, in the test on M19-MEL melanoma and in the test with NCI-H226 lung was more than 100 µM in each case. Moreover, the TGI with NCI-H460 lung, with SF-539 CNS, in the test with SNB-78 CNS and in the test on UACC-62 melanoma was more than 100 µM in each case.

The values are drawn from PubChem BioAssay (NCI).
